{"source": "patent US8431577B2", "about": "“Crystalline form of eszopiclone, composition, preparation and uses thereof” (Tianjin Tasly Group Co., Ltd., priority 2008, dated 2013)", "origin": "cited, not measured here", "settings": "comparative acute toxicity research; cited from earlier work", "data": [{"smiles": "CN1CCN(C(=O)O[C@H]2c3nccnc3C(=O)N2c2ccc(Cl)cn2)CC1", "note": "[S-zopiclone, (+)-(S)-(4-methylpiperazine-1-carboxylate)(6-(5-chloropyridinyl-2-yl)-7-carbonyl-6,7-dihydro-5-H-pyrrolo[3,4-b]pyrazin-5-yl ester)]", "values": [{"measurement": "acute toxicity compared with racemic zopiclone", "value": "low toxicity than that of the racemic zopiclone"}]}]}
